Test results from US20120225093A1, “Abrogating HIV-1 Infection via Drug-Induced Reactivation of Apoptosis” (UNIVERSITY OF MEDICINE AND DENTISTRY OF NEW JERSEY, priority 2010, published 2012).

Key:
HIV-1 = experiment: Small trial of virological response to DEF in HIV-infected volunteers; type: in vivo, human
uninfected H9 cells = experiment: 89-kDa PARP fragment by flow cytometry in uninfected H9 cells; type: cell-based; details: 30 μM CPX, 24 hr
Procedure: Intracellular antigens were determined, as geometric means of fluorescence, by flow cytometric analysis using a BD FACSCalibur™ and its BD FACStation System™ (Becton Dickinson; San Jose, Calif.). Intracellular antigens were stained according to the instrument producer's instructions. Anti-HIV-1 Tat antibody was from Abcam Inc. (Cambridge, Mass.); anti-HIV-1 Vpr from Santa Cruz Biotechnology (Santa Cruz, Calif.); anti-HIV-1 Rev from Advanced Biotechnologies Inc. (Columbia, Md.); anti-HIV-1 p24 (KC57) from Beckman Coulter, Miami, Fla.; monoclonal C92-605 anti-human caspase-3 (active form) from Pharmingen (BD Biosciences, San Diego, Calif.); monoclonal F21-852 anti-human poly (ADP-ribose) polymerase (caspase-cleaved 89-kDa fragment); and monoclonal 6C8 anti-human Bcl-2 from Becton Dickinson (BD Biosciences; San Diego, Calif.).
To determine whether the differential effects of the drugs extend into late apoptosis, PARP fragmentation in H9 and H9-HIV cells was measured. CPX caused an ˜8-fold increase in H9-HIV cells positive for 89-kDa PARP, compared to a ˜2 fold increase in H9 cells (FIG. 9A). By 24 hr, twice as many cells stained positive for 89-kDa PARP in the infected cultures as in uninfected cultures (27% compared to 14%; FIG. 9B). […]

| Structure (SMILES) | virological response after drug withdrawal (HIV-1) | cells positive for 89-kDa PARP (uninfected H9 cells) [%] | increase in cells positive for 89-kDa PARP (uninfected H9 cells; relative to untreated) [fold] |
| --- | --- | --- | --- |
| Cc1c(O)c(=O)ccn1C [DEF, 3-hydroxy-1,2-dimethylpyridin-4(1H)-one] | persistent off-medicine antiretroviral activity even eight weeks after drug withdrawal |  |  |
| Cc1cc(C2CCCCC2)n(O)c(=O)c1 [CPX, 6-cyclohexyl-1-hydroxy-4-methylpyridin-2[1H]-one] |  | 14 | ~2 |
